These results are taken from patent US20230257385A1, “SALT AND SOLID FORMS OF TABERNANTHALOG” (priority 2021, published 2023).

Where a name gives a salt, the structure may show the parent alone. Bounds are passed on as bounds.

Common to all, as to type: physicochemical
Data set [1] in a line: Qualitative solubility screen of the tabernanthalog monofumarate salt in solvents (Example 5, Experiment Reference 1; Example 2). How it is done:
Consistent with Example 1, samples were dissolved in various solvents/solvent systems and cooled to isolate solid material.
Tabernanthalog fumarate dissolved at 5 vol (200 mg/mL) only at reflux in two solvents, water and methanol. At 15 vol the product dissolved in both refluxing butanol and ethanol. Consistent with Example 1, the dissolved samples were cooled. On cooling, each of the four effective solvents yielded solid material. The solids thus obtained were analyzed by XRPD yielding diffractograms with novel peaks from products isolated from each of the four protic solvents.
The tabernanthalog monofumarate salt (Pattern #1, Sample Reference 1, 25 mg, 1 wt) was weighed out in 20 separate vials to qualitatively examine the solubility in an array of diverse solvents. […] If insoluble at 5 vol, the solvent quantity was increased to 10 vol, 15 vol and 20 vol of the respective solvent. […] The insoluble suspensions were additionally worked up for XRPD analysis. The resultant powder patterns were subsequently cross-referenced against the input supplied material.

A short description of data set [2]: Stability examination of supplied monofumarate material at 40° C./75% RH (Example 5, Experiment Reference 2). As to conditions: 75% RH at 40° C., up to 5 w.
Data set [3] in a line: Suspension equilibration (competitive; ageing cycle; drying of wet pellets), relative stability of forms. As for the experimental part:
FIG. 94 depicts the XRPD overlay of, form top to bottom, a mixture of Tabernanthalog·0.5 Fumarate and Tabernanthalog·Fumarate equilibrated in acetonitrile at 20° C., a mixture of Tabernanthalog·0.5 Fumarate and Tabernanthalog·Fumarate equilibrated in acetonitrile at 40° C. and Tabernanthalog fumarate Pattern 19.
FIG. 283 depicts the timepoints of the suspension equilibration in tBME at 20° C. XRPD diffractogram overlay of, from top to bottom, Sample B-A2 (Form B, Pattern #2a), 8-A4 (Form A, Pattern #6a), 16-A1 (t=24 h, 16-A2 (t=48 h), 16-A3 (t=108 h), 16-A4 (t=192 h) 16-A8 (t=4 weeks).
FIG. 284 depicts the timepoints of the suspension equilibration in tBME at 40° C. XRPD diffractogram overlay of, from top to bottom, Sample B-A2 (Form B, Pattern #2a), 8-A4 (Form A, Pattern #6a), 16-B1 (t=24 h, 16-B2 (t=48 h), 16-B3 (t=108 h), 16-B4 (t=192 h) 16-B8 (t=4 weeks).

Data set [4] in a line: Re-proportionation examination hemifumarate / monofumarate (Example 5, Experiment References 5 and 10). As for the experimental part: (5-B4; Experiment Reference 5-Sample Reference B4) and 40° C. (5-B5; Experiment Reference 5-Sample Reference B5). The output was analyzed by XRPD (FIG. 94).
Purified water (250 ml, 5 vol) was subsequently added, and the suspension was stirred at 50° C. for ca. 24 h.
Purified water (250 ml, 5 vol) was subsequently added, and the suspension was stirred at 20° C. for ca. 24 h.

Data set [5] is described as follows: Standing of solid forms over time (form by XRPD). The text has this:
FIG. 844 depicts the XRPD profile of Experiment 1-Sample D2 (Tabernanthalog·Sorbate, Form A).

Data set [6] is described as follows: Thermal study: glass transition temperature (Tg) of amorphous monofumarate and sorbate. How it is done: Each salt was analysed by DSC and TGA to determine the Tg of the amorphous form. Amorphous forms were generated by thermocycling the salt past the melt temperature, cooling the sample, and once cooled the samples were reheated. Open pan and sealed pan DSC were utilised, open pan DSC were heated past the melt event, cooled, and left to stand under ambient conditions overnight.
Sealed pans were immediately cycled with no time left to stand.
TGA (open pan) samples were analysed by thermocycle, with no time for the sample to stand under ambient conditions.
The amorphous forms were generated in these studies and characterised with their Tg being measured.
A hot stage microscope heating block was used to generate the amorphous phase in-situ, to allow analysis by XRPD. A silicon XRPD sample plate was loaded with the appropriate salt. The plate was heated past the melt event, removed from the hot stage microscope block and cooled to ambient in air and analysed by XRPD to ensure that the amorphous form was generated. The amorphous material was then analysed by ^1H NMR and LC-MS to ensure there was no change in chemical composition.
Two DSC pans were charge with the appropriate salt (Tabernanthalog·Sorbate, A1270−076-A1 and Tabernanthalog·Monofumarate, Tabernanthalog·Monofumarate), the first DSC pan was not sealed (open pan DSC), the second was sealed (hermetic sealed pan DSC). The open pan DSC was cycled from 20° C. to just after the melt event for each, cooled to −20° C. and left to stand under ambient conditions over night. The open pan DSC was then heated to just before the thermal degradation event (Tabernanthalog·Sorbate ca. 160° C., Tabernanthalog·Monofumarate ca. 210° C.) The hermetic sealed DSC was heated from 20° C. to just after the melt event, cooled to −20° C. then headed to just before the same degradation event.
Two TGA crucibles were charged with the appropriate salt (Tabemanthalog·Sorbate, A1270-076-A1, Tabernanthalog·Monofumarate, Tabernanthalog·Monofumarate), both were thermocycled from 20° C. to past the melt event and then cooled to −20° C., each pan was then immediately heated to just before the degradation event to measure the Tg event.

Data set [7] in a line: Amorphous study (freeze drying, evaporation, spray drying, bead milling) of monofumarate and sorbate. The text has this: The purpose of this study was to generate amorphous material to be characterized and used in water activity studies. To achieve this, the two salts were exposed to a variety of techniques in attempts to generate the amorphous forms, including freeze drying, evaporation, vacuum desiccation and cryodesiccation spray drying. These techniques were not successful for the two salts Tabernanthalog·Monofumarate and Tabernanthalog·Sorbate.
Bead milling was attempted to generate the amorphous form of Tabernanthalog·Sorbate (Tabernanthalog·Sorbate, Form A). The salt underwent neat milling and separately with the addition of tetradecafluorohexane (TDFH). The following experiments were performed: Experiment 6-Sample A1 (30 Hz, 2 h), Experiment 6-Sample A2 (30 Hz, 5.5 h) and Experiment 6-Sample A3 (30 Hz 1 h, TDFH), the products from each experiment was analysed by XRPD to determine the extent of crystallinity (FIG. 812). None of the experiments provided amorphous material.
Each salt was charged to a 7 ml vial (50 mg, 1.0 wt). To the vial containing Tabernanthalog·Monofumarate (Tabernanthalog·Monofumarate), was charged water (10.0 vol), to fully dissolve the sample. Tabernanthalog·Sorbate (A1270-076-A1) was taken-up in ethanol/water (15% v/v, 10 vol), a further charge of water (1.0 ml), was added to ensure that the sample dissolved.
Vials containing the salt solutions were placed on the freeze drier apparatus overnight, and the cryo-desiccated products were recovered the following morning and analysed by XRPD each product remained crystalline.
Tabernanthalog·Monofumarate (A1272−082-A2, 51.1 mg, 1.0 wt) was charged to a 7 ml scintillation vial followed by THE (2 ml, […]), the suspension was heated to 50° C., until full dissolution was observed. The vial was stoppered by foil and a pin hole was pierced in the top. The vial was located under a steady N2 stream.
Tabernanthalog·Sorbate (A1270−076-A1, 99.4 mg, 1.0 wt) was charged to a 7 ml scintillation vial, followed by hexafluoroisopropanol (HFIPA, 5.0 vol, 0.5 ml), after which, the sample fully dissolved. The cap was replaced by foil and pierced on the top. Solvent was allowed to evaporate, to afford a dry, brown solid that was analysed by XRPD yielding crystalline pattern #7. Sample were dried under N2 stream for 5 h and reanalysed by XRPD, remaining as pattern #7
Tabernanthalog·Sorbate (A1270−076-A1, 50.0 mg, 1.0 wt) was charged to a 7 ml scintillation vial followed by hexafluoroisopropanol (HFIPA, 0.5 ml, 10 vol), to yield a clear solution. The solution was concentrated to dryness, by rotary evaporation, yielding an oil, that was allowed to stand undisturbed overnight.
Tabernanthalog·Sorbate (A1270−076-A1, 50.0 mg, 1.0 wt) was charged to a 7 ml scintillation vial, followed by methanol (300 μl, 6.0 vol). The solution was clarified by filtration into a 7 ml scintillation vial, containing diethyl ether (1.0 ml, 20.0 vol).
Tabernanthalog·Sorbate (A1270−076-A1, 102 mg, 1 wt) was charged to a 7.0 ml scintillation vial followed by methanol (1.9 ml, 19.0 vol). The solution was loaded into the spray drier apparatus.
The procedure yielded a brown powder (30 mg, 30% th.).
Tabernanthalog·Sorbate (A1270-076-A1, Form A) was charged to a 1.5 ml steel milling-vessel with a single 5 mm ball bearing. The sample was milled for 5.5 h at 30 Hz and yielded an off-white powder, that was analysed by XRPD, no change in crystallinity.

Where [8] appears, read: Amorphisation activity: Antisolvent/N2 Flow, 50 mg.
[9] abbreviates: Amorphisation activity: Freeze dry, 50 mg.
The mark [10] stands for this setting: Amorphisation activity: HFIP Evaporation, 50 mg.
Setting [11] is: Amorphisation activity: Milling, 50 or 100 mg.
[12] abbreviates: Amorphisation activity: Rotary Vac (MeOH), 50 mg.
Where [13] appears, read: Amorphisation activity: Spray drying (15% EtOH/Water), 100 mg.
[14] abbreviates: Amorphisation activity: Spray drying (MeOH), 100 mg.
Where [15] appears, read: Amorphisation activity: THF/N2, 50 mg.

With `COc1ccc2c3c([nH]c2c1)CCN(C)CC3` [tabernanthalog monofumarate salt, 8-methoxy-3-methyl-1H,2H,3H,4H,5H,6H-azepino[4,5-b]indole fumarate], the “solubility in common solvents” value in data set [1] (variety of solvents) was “sparingly soluble in most of the common solvents investigated”. Also, in data set [1] (water, methanol (two separate solvents), water, thermodynamic from solid, reflux, read-out: soluble in methanol/water at reflux), the solubility was at least 200 mg/mL. The “physical and chemical stability” value in data set [2] (open vial and double polyethene bagged, XRPD, HPLC, TGA, DSC, fumarate) is “physically and chemically stable”. In addition, in data set [2], the “change in chemical purity (HPLC)” value was “did not show significant changes in chemical purity”.
As to `COc1ccc2c3c([nH]c2c1)CCN(C)CC3` [Form B], the “form change under competitive suspension equilibration conditions” value in data set [3] (in the presence of Form A) is reported as “slowly evolves into Form A”.
For `COc1ccc2c3c([nH]c2c1)CCN(C)CC3` [tabernanthalog hemifumarate], in data set [3] (ageing cycle), the “change of salt stoichiometry during an ageing cycle” value is recorded as “re-proportionated into the fumarate salt”. Moreover, the “re-proportionation of the hemi-salt into the monofumarate salt” value in data set [4] (Expt. #1: equilibrated in acetonitrile at 20° C., 20 h time point) is recorded as “did not re-proportionate”. Also, the “outcome of competitive equilibration of hemifumarate and monofumarate” value in data set [4] (Expt. #2: acetonitrile, 48 h at 20° C. and 18 h at 40° C., XRPD) is reported as “re-proportionation into the unary-fumarate appeared to be favored over the hemi-fumarate”.
As for `COc1ccc2c3c([nH]c2c1)CCN(C)CC3` [Tabernanthalog•Sorbate], the Outcome entry in data set [5] (amorphous Experiment 1-Sample D1 standing overnight, ambient) is given as “Crystalline”; in data set [6] (Hot plate heat up, sorbate 20 to 170 ° C., monofumarate 20 to 210 ° C.), “Amorphous”; in data set [6] (Hot stage plate heat up, sorbate 20 to 170 ° C., monofumarate 20 to 210 ° C.), “Amorphous”; in data set [6] (Open Pan DSC, sorbate 20 to 165 to −20, O/N 20 to 230 ° C., monofumarate 20 to 210 to −20, O/N 20 to 210 ° C.), “Amorphous”; in data set [6] (Sealed DSC, sorbate 20 to 165 to −20 to 230 ° C., monofumarate 20 to 210 to −20 to 210 ° C.), “Amorphous”; in data set [6] (TGA, sorbate 20 to 165 to −20 to 230 ° C., monofumarate 20 to 210 to −20 to 210 ° C.) it was “Amorphous”. Also, the Outcome result in data set [7] (setting [8]) was “Crystalline”; in data set [7] (setting [9]), “Crystalline”; in data set [7] (setting [10]) it was “Crystalline and Gum”; in data set [7] (setting [11]), “Crystalline”; in data set [7] (setting [12]) it was “Crystalline”; in data set [7] (setting [13]) it was “Crystalline”. Moreover, the Outcome entry in data set [7] (setting [14]) and in data set [7] (setting [15]) was “Crystalline” throughout. In addition, the “Glass temperature (Tgs)” value in data set [6] (amorphous form generated in situ, sealed DSC thermocycle (Sample B1)) worked out at 22 °C. Moreover, the “Form by XRPD” value in data set [7] (setting [8]) is “Form A”; in data set [7] (setting [9]), “Form A”; in data set [7] (setting [10]) it was “Pattern #7”; in data set [7] (Amorphisation activity: Hot Melt Extrusion (Overnight), 250 mg), “Form A”; in data set [7] (Amorphisation activity: Hot Melt Extrusion, 250 mg) it was “Form A”; in data set [7] (setting [11]), “Form A”. Moreover, the “Form by XRPD” value in data set [7] (setting [12]), in data set [7] (setting [13]), in data set [7] (setting [14]) and in data set [7] (setting [15]) was “Form A” each time.
On to `C/C=C/C=C/C(=O)O.COc1ccc2c3c([nH]c2c1)CCN(C)CC3` [Experiment 1-Sample D1], for which the “form by XRPD after standing overnight in ambient conditions” value in data set [5] (amorphous input, overnight, ambient conditions) is recorded as “crystalline material”.
